The source of these data is patent publication US11833160B2, “Ursodeoxycholic acid derivatives as HDAC inhibitors for the treatment of polycystic diseases” (UNIVERSIDAD DEL PAIS VASCO/EUSKAL HERRIKO UNIBERTSITATEA, priority 2017, dated 2023).

In data set [1] the target is T1, human HDAC4 (Homo sapiens, UniProt P56524).
T1 construct: amino acids 627-1085 with GST N-terminal tag, MW=75.2 kDa; GST (N); purchased BioMol, Hamburg, Germany; host or cells: baculovirus expression system
As to the kind of experiment: HDAC4 enzymatic activity assay (fluorogenic peptide). Particulars: 10-dose, 3-fold serial dilution, triplicate. The class given is biochemical. The method, then: Peptide substrates: all HDAC assays were performed using acetylated peptide substrates labeled with 7-amino-4-methylcoumarin (AMC): • Substrate for isoforms HDAC1, 2, 3, 6, 10, 11, and HeLa nuclear extract assays: acetylated fluorogenic peptide from p53 residues 379-382 (RHKKAc). • Substrate for isoforms HDAC4, 5, 7, 9: fluorogenic Boc-L-Lys (s-trifluoroacetyl)-AMC. • Substrate for HDAC8 assays: acetylated fluorogenic peptide from p53 residues 379-382 (RHKAcKAc).
50 μl of peptide substrate (see “peptide substrates” section above) and an optimal concentration of the corresponding enzyme (see “enzymes” section above) in the assay buffer at a final DMSO concentration of 1% were incubated in the presence of gradient concentrations of inhibitors (10-dose IC50 mode with 3-fold serial dilution) at 30° C. for 2 hours. The reactions were carried out in a 96-well microplate for fluorometry in a 50 μl reaction volume. After the deacetylation reaction, Fluor-de-Lys-Developer (BioMol Cat. #KI-105) was added to each well to digest the deacetylated substrate, thereby producing the fluorescent signal. The reaction was carried out for 45 minutes at 30° C. with 5% CO2; the fluorescent signal was then measured using an excitation wavelength of 360 nm and an emission wavelength of 460 nm in a microplate-reading fluorometer (GeminiXS, Molecular Devices, Sunnyvale, CA). […]

Data set [2] deals with T2, OCT1 (Homo sapiens, UniProt O15245).
T2 construct: expressed in transfected cells; host or cells: HepG2 cells
T2 sequence (O15245 1-554): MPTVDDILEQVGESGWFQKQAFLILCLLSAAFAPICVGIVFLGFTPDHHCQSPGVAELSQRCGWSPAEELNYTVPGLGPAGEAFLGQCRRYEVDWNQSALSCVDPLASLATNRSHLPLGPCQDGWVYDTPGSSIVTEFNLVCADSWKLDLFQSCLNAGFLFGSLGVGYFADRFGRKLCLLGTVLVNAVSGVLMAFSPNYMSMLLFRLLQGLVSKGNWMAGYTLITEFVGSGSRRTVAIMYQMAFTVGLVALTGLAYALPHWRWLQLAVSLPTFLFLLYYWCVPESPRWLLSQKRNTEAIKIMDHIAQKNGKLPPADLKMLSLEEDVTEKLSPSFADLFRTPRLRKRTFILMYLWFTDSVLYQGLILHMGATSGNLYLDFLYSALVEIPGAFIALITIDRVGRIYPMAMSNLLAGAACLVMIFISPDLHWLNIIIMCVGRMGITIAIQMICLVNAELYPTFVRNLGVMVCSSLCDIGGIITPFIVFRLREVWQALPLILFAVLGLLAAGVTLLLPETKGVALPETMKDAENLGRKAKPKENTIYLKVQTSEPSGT
Description: Uptake study in HepG2 cells overexpressing OCT1. The format is in vitro ADME. From the text:
The bile acid and organic cation transporters expressed in hepatocytes and cholangiocytes were overexpressed in HepG2 cells (OCT1) and CHO cells (OCT3). The efficacy of the process was confirmed by means of measuring the abundance of mRNA (qPCR), protein (WB), and the correct insertion in the plasma membrane (immunofluorescence). The uptake studies included comparing the uptake efficiency of the compound with respect to dihydroethidium (DHE) in the case of OCT3, and sorafenib in the case of OCT1 (positive controls), as well as the sensitivity of the process to substrate inhibition induced by the joint administration of the compound and quinine. The cell content of all the compounds was determined by means of triple quadrupole HPLC-MS/MS after extraction thereof from the cell system used in each case.

The target of data set [3] is T3, OATP1B1 (Homo sapiens, UniProt Q9Y6L6).
T3 construct: expressed in transfected cells
T3 sequence (Q9Y6L6 1-691): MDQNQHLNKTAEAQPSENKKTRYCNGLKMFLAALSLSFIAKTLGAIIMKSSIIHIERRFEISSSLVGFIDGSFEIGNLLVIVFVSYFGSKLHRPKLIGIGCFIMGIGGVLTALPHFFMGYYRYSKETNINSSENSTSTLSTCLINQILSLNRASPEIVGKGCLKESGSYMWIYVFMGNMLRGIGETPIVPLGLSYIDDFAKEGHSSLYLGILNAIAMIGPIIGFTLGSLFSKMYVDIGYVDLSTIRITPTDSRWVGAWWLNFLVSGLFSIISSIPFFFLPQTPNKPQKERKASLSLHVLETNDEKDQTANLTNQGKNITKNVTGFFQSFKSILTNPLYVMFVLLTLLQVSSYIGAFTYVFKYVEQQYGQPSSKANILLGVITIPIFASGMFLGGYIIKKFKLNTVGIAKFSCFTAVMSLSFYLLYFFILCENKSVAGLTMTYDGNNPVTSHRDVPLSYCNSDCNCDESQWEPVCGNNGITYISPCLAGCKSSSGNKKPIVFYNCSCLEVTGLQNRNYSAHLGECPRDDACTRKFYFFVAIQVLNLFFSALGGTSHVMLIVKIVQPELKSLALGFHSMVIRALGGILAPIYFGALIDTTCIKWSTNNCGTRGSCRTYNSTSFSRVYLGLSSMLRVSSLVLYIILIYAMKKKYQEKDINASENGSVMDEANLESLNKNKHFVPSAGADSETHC
Description: Uptake study, transporter OATP1B1 (data not shown). The class given is in vitro ADME.

Data set [4] relates to α-acetylated-tubulin in polycystic human cholangiocytes. As to the kind of experiment: Immunoblot of α-acetylated-tubulin. The class given is cell-based. Particulars: different doses. The method, then:
The expression of α-acetylated-tubulin (Ac-α-tubulin) and lysine 9-acetylated histone 3 (Ac-H3K9) in polycystic human cholangiocytes in culture was analyzed using Ac-α-tubulin-specific primary antibodies (1:2000, Sigma-Aldrich) and H3K9-specific primary antibodies (1:500, Cell Signaling Technology) and a peroxidase-conjugated secondary antibody (1:5000, Sigma-Aldrich). The expression of each protein was quantified using a chemiluminescence system (Amersham, GE Healthcare). The GAPDH protein was used as loading control.
For orientation: Immunoblotting shows a protein as a band on a membrane.

T1 sequence (P56524 627-1084 limits assumed): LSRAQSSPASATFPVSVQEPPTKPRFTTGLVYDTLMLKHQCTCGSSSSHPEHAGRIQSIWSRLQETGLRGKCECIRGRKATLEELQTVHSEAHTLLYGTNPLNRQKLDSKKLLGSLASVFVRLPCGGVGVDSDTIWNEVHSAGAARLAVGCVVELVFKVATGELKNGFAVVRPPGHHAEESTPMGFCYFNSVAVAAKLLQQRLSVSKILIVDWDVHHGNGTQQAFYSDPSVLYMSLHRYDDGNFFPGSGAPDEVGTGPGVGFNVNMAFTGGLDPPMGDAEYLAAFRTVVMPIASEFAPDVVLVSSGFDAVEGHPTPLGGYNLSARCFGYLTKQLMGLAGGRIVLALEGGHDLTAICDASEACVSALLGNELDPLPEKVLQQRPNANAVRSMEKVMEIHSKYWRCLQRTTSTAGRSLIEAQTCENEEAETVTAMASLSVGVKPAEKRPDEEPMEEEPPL

By IC50 is commonly meant the concentration at which inhibition is half-maximal. Compound `C[C@H](CCC(=O)NCc1ccc(C(=O)NO)cc1)[C@H]1CC[C@H]2[C@@H]3[C@@H](O)C[C@@H]4C[C@H](O)CC[C@]4(C)[C@H]3CC[C@]12C` [Compound Ia] showed an IC50 in data set [1] of 16.5 µM. Also, the “effect of quinine (OCT1 inhibitor) on the OCT1 transport” value in data set [2] (joint administration with quinine) is recorded as “inhibited by the presence of quinine”. Also, in data set [2] (liver cells (HepG2 overexpressing OCT1), HPLC-MS/MS cell content), the “transport through OCT1” value is recorded as “specifically transported through OCT1”. In addition, the “transport through OATP1B1” value in data set [3] was “not through ASBT or OATP1B1”. Besides, in data set [4], the “expression of α-acetylated-tubulin” value was “increases significantly and in a dose-dependent manner”.
As a reminder, the melting point is the temperature, or range, at which the solid turns liquid. Regarding `C[C@H](CCC(=O)NCC(=O)NCc1ccc(C(=O)NO)cc1)[C@H]1CC[C@H]2[C@@H]3[C@@H](O)C[C@@H]4C[C@H](O)CC[C@]4(C)[C@H]3CC[C@]12C` [Ib, 4-((2-((R)-4 ((3R,5S,7S,8R,9S,10S,13R,14S,17R)-3,7-dihydroxy-10,13-dimethylhexadecahydro-1H-cyclopenta[a]phenanthren-17-yl)pentanamide)acetamido)methyl)-N-hydroxybenzamide], the melting point was in the range of 153 to 155 °C.
